In patent publication US20240408194A1, “DNA ORIGAMI SUBUNIT VACCINE FOR PREVENTION OF SARS-CoV-2 VARIANT INFECTION” (priority 2021, published 2024):
“Also recorded” adds a separate entry of the source.

System: spike and variants
Assay type: binding, SARS-COV-2

## LCB1
  binding affinity for spike and variants: up to picomolar; also recorded: high affinity
